Article PMC3306499 (ACS Chemical Biology, 2012)
Structures can show the parent of a compound that is named as a salt. Where two headings read alike, the source gives them in different places. Blank lines part the entries; values can stand above or below the compound they belong to.

Legend:
human A3G (APOBEC3G) = human A3G (APOBEC3G) (Homo sapiens, UniProt Q9HC16); experiment: fluorescence-based ssDNA cytosine deaminase assay, A3G; assay type: biochemical
human A3A (APOBEC3A) = human A3A (APOBEC3A) (Homo sapiens, UniProt P31941); experiment: fluorescence-based ssDNA cytosine deaminase assay, A3A; assay type: biochemical
Chain of human A3A (APOBEC3A) (P31941 whole entry): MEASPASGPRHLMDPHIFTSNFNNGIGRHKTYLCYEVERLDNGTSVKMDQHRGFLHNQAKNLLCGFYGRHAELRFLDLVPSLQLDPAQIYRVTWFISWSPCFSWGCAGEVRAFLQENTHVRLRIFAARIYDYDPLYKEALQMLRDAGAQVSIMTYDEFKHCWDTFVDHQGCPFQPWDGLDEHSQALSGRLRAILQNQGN

[1] = target: E. coli uracil DNA glycosylase (UDG) (Escherichia coli, UniProt P12295); experiment: UDG assay; assay type: biochemical
Chain of E. coli uracil DNA glycosylase (UDG) (P12295 whole entry): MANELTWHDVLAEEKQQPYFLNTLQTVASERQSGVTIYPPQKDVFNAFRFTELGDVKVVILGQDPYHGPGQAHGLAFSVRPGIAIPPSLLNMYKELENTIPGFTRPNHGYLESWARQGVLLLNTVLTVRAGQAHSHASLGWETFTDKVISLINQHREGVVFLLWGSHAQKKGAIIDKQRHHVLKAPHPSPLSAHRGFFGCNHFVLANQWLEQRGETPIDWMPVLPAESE

HIV-1 RNase H = HIV-1 RNase H (Human immunodeficiency virus type 1 group M subtype B, UniProt P04585); experiment: HIV-1 RNase H inhibition assay; assay type: biochemical
HIV-1 integrase = HIV-1 integrase (Human immunodeficiency virus type 1 group M subtype B, UniProt P04585); experiment: concerted HIV-1 integration assay; assay type: biochemical
HIV RNase H = details: read-out: IC50 Values RNase H, cited from earlier work
[2] = read-out: IC50 Values A3G, dose response, purified full-length A3G-mycHis
[3] = read-out: IC50 Values A3A, dose response, purified A3A-mycHis
[4] = read-out: IC50 Values UDG, no deaminase, uracil ssDNA substrate
[5] = read-out: IC50 Values RNase H, A3G inhibitors, this study

Chain of human A3G (APOBEC3G) (Q9HC16 whole entry): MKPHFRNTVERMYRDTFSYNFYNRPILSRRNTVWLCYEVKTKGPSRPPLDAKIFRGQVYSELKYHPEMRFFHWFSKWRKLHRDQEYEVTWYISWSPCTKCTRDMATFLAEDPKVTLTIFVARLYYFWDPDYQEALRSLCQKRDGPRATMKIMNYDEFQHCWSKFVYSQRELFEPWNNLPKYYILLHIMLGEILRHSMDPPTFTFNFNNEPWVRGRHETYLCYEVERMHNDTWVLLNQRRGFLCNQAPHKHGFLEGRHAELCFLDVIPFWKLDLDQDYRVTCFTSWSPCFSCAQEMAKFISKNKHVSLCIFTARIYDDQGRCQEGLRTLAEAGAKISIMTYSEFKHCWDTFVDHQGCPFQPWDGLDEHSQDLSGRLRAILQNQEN

- IC50 (human A3G (APOBEC3G); [2]): 13 µM
SMILES: O=C(O)c1ccc(-c2cccc(/C=N/NC(=O)c3cc(O)c(O)c(O)c3)c2)cc1 [BHMP-07, reference compound]
- IC50 (HIV RNase H; published value): 0.1 µM

- IC50 (human A3G (APOBEC3G); [2]): 0.45 µM
- IC50 (human A3A (APOBEC3A); [3]): > 200 µM
SMILES: CC(=O)NCCc1ccc(O)c(O)c1 [MN3, N-Acetyldopamine monohydrate]

- IC50 (human A3G (APOBEC3G)): 7.5 µM
- IC50 (human A3A (APOBEC3A)): 12 µM
SMILES: CC(=O)OCC1=C(C(=O)O)N2C(=O)[C@@H](NC(=O)CSc3ccncc3)[C@H]2SC1 [MN7, Cephapirin sodium salt]

- IC50 (human A3G (APOBEC3G)): 5.3 µM
- IC50 (human A3A (APOBEC3A)): > 200 µM
SMILES: C[C@@](Cc1ccc(O)c(O)c1)(NN)C(=O)O [MN9, S-(−)-Carbidopa]

More lines, now with the values behind:

SMILES: Oc1cc2c(cc1O)[C@H]1c3ccccc3CN[C@@H]1CC2 (racemic) [MN8, Dihydrexidine hydrochloride]
- IC50 (human A3G (APOBEC3G)): 0.59 µM
- IC50 (human A3A (APOBEC3A)): > 200 µM
- IC50 [1]: > 200 µM
- IC50 (HIV-1 RNase H): > 25 µM
- IC50 (HIV-1 integrase): > 25 µM

SMILES: NC1CCc2cc(O)c(O)cc2C1 (racemic) [MN13, (±)-2-Amino-6,7-dihydroxy-1,2,3,4-tetrahydronaphthalene hydrobromide]
- IC50 (human A3G (APOBEC3G); [2]): 0.7 µM
- IC50 (human A3A (APOBEC3A); [3]): > 200 µM
- IC50 [1, 4]: > 200 µM
- IC50 (HIV-1 RNase H; [5]): > 25 µM

SMILES: Oc1cc2c(cc1O)C(c1ccccc1)CNCC2 (racemic) [MN15, (±)-SKF-38393 hydrochloride]
- IC50 (human A3G (APOBEC3G); [2]): 27 µM
- IC50 (human A3A (APOBEC3A); [3]): > 200 µM
- IC50 [1, 4]: > 200 µM

SMILES: NC(Cc1cc(O)c(O)cc1O)C(=O)O (racemic) [MN23, 6-Hydroxy-DL-DOPA]
- inhibition of A3G catalytic activity (in words) (human A3G (APOBEC3G)): inhibit A3G catalytic activity
- IC50 (human A3G (APOBEC3G); [2]): 4 µM
- inhibition of A3A (in words) (human A3A (APOBEC3A)): inhibit A3A
- IC50 [1, 4]: > 200 µM

SMILES: CC(N)(Cc1ccc(O)c(O)c1)C(=O)O (racemic) [MN28, (±)–3-(3,4-Dihydroxyphenyl)-2-methyl-DL-alanine]
- IC50 (human A3G (APOBEC3G); [2]): 13 µM
- IC50 (human A3A (APOBEC3A); [3]): > 200 µM
- IC50 [1, 4]: > 200 µM
- IC50 (HIV-1 RNase H; [5]): > 25 µM

SMILES: O=C(/C=C/c1ccc(O)c(O)c1)OCCc1ccccc1 [CAPE, caffeic acid phenethyl ester, reference compound]
- IC50 (human A3G (APOBEC3G)): > 100 µM
- inhibition of A3G catalytic activity (in words) (human A3G (APOBEC3G)): no significant effect
- inhibition of A3A (in words) (human A3A (APOBEC3A)): no significant effect

SMILES: O=C(/C=C/c1ccc(O)c(O)c1)O[C@@H]1C[C@](O)(C(=O)O)C[C@@H](O)[C@H]1O [Chlorogenic acid, reference compound]
- IC50 (human A3G (APOBEC3G)): > 100 µM
- inhibition of A3G catalytic activity (in words) (human A3G (APOBEC3G)): no effect

SMILES: O=C(NN=Cc1c(O)ccc2ccccc12)c1cc(O)c(O)c(O)c1 [KMMP-02 (THBNH), reference compound]
- IC50 (human A3G (APOBEC3G); [2]): > 100 µM
- IC50 (HIV RNase H; ref M. Parniak, unpublished): 0.2 µM

SMILES: COc1ccc2ccccc2c1/C=N/NC(=O)c1ccc(O)c(O)c1 [KMMP-05 (DHBNH), reference compound]
- IC50 (human A3G (APOBEC3G); [2]): > 100 µM
- IC50 (HIV RNase H; published value): 0.5 µM

SMILES: O=C(/C=C/c1ccc(O)c(O)c1)O[C@@H](C(=O)O)[C@@H](OC(=O)/C=C/c1ccc(O)c(O)c1)C(=O)O [L-Chicoric Acid, reference compound]
- inhibition of A3G catalytic activity (in words) (human A3G (APOBEC3G)): inhibited
- IC50 (human A3G (APOBEC3G); [2]): 2.8 µM
- inhibition of A3A (in words) (human A3A (APOBEC3A)): inhibited

SMILES: O=C(O)[C@H](O)[C@@H](O)C(=O)O [L-Tartaric Acid, reference compound]
- IC50 (human A3G (APOBEC3G)): > 100 µM
- inhibition of A3G catalytic activity (in words) (human A3G (APOBEC3G)): no effect

SMILES: O=C(O)C1=CC(=C(c2ccc(O)c(C(=O)O)c2)c2ccc(O)c(C(=O)O)c2)C=CC1=O [MN1, Aurintricarboxylic acid]
- IC50 (human A3G (APOBEC3G)): 0.49 µM
- IC50 [1]: 15 µM
- inhibition of UDG activity (in words) [1]: blocked UDG activity

SMILES: CN1CCc2cccc3c2[C@H]1Cc1ccc(O)c(O)c1-3 [MN2, R-(−)-Apomorphine hydrochloride hemihydrate]
- IC50 (human A3G (APOBEC3G)): 1.3 µM
- IC50 (human A3A (APOBEC3A)): > 200 µM
- IC50 [1]: > 200 µM
- IC50 (HIV-1 RNase H): > 25 µM
- IC50 (HIV-1 integrase): > 25 µM

SMILES: O=C1C=CC(=O)C=C1 [MN4, p-Benzoquinone]
- IC50 (human A3G (APOBEC3G); [2]): 0.17 µM
- IC50 (human A3A (APOBEC3A); [3]): > 200 µM

SMILES: O=C(O)/C=C/c1ccc(O)c(O)c1 [MN5, Caffeic acid]
- IC50 (human A3G (APOBEC3G)): 85 µM
- IC50 (human A3A (APOBEC3A)): > 200 µM
- IC50 [1]: > 200 µM

SMILES: O=C(O)c1cc[c]([Hg][Cl])cc1 [MN6, 4-Chloromercuribenzoic acid]
- IC50 (human A3G (APOBEC3G); [2]): 0.13 µM
- IC50 (human A3A (APOBEC3A); [3]): 0.26 µM
